Reference: ChEMBL document CHEMBL1141020, “Anthranilimide-based glycogen phosphorylase inhibitors for the treatment of type 2 diabetes: 1. Identification of 1-amino-1-cycloalkyl carboxylic acid headgroups” (Bioorg Med Chem Lett, 2009)

How the values were obtained:
[1] = Metabolic stability in rat liver microsomes assessed as half life; assay type: ADME, Microsome
[2] = Volume of distribution at steady state in Beagle dog at 5 mg/kg, po or 1 mg/kg, iv; assay type: ADME, organism-based, Canis lupus familiaris; settings: in vivo, read-out: Vdss
[3] = AUC (0 to infinity) in Sprague-Dawley rat at 1 mg/kg, po; assay type: ADME, organism-based; set-up: time infinity, dose 1 mg/kg, route oral; settings: plasma
[4] = Oral bioavailability in Sprague-Dawley rat at 10 mg/kg; assay type: ADME, organism-based; settings: in vivo
[5] = Clearance in Beagle dog at 5 mg/kg, po or 1 mg/kg, iv; assay type: ADME, organism-based, Canis lupus familiaris; settings: in vivo
[6] = Half life in Sprague-Dawley rat at 10 mg/kg, po; assay type: ADME, organism-based; set-up: dose 10 mg/kg, route oral; settings: in vivo
[7] = Volume of distribution at steady state in Sprague-Dawley rat at 10 mg/kg, po or 2.5 mg/kg, iv; assay type: ADME, organism-based; settings: in vivo, read-out: Vdss
[8] = AUC (0 to infinity) in Beagle dog at 1 mg/kg, po; assay type: ADME, organism-based, Canis lupus familiaris; set-up: time infinity, dose 1 mg/kg, route oral; settings: plasma
[9] = Oral bioavailability in Beagle dog at 5 mg/kg; assay type: ADME, organism-based, Canis lupus familiaris; settings: in vivo
[10] = Half life in Beagle dog at 5 mg/kg, po; assay type: ADME, organism-based, Canis lupus familiaris; set-up: dose 5 mg/kg, route oral; settings: in vivo
[11] = Clearance in Sprague-Dawley rat at 10 mg/kg, po or 2.5 mg/kg, iv; assay type: ADME, organism-based; settings: in vivo

Row | SMILES | half-life [1] [h] | Vd [2] [L/kg] | AUC(0-inf) [3] [ng·h/mL] | bioavailability [4] [%] | clearance [5] [mL/min/kg] | half-life [6] [h] | Vd [7] [L/kg] | AUC(0-inf) [8] [ng·h/mL] | bioavailability [9] [%] | half-life [10] [h] | clearance [11] [mL/min/kg]
1 | Cc1cc(C)c(NC(=O)Nc2cc3ccccc3cc2C(=O)N[C@H](C(=O)O)C2CCCCC2)c(C)c1 | < 0.25 |  |  |  |  |  |  |  |  |  | 
2 | Cc1cc(C)c(NC(=O)Nc2cc3ccccc3cc2C(=O)NC2(C(=O)O)CCCCCCC2)c(C)c1 |  | 0.5 | 4380 | 28 | 13 | 5.4 | 0.28 | 620 | 45 | 4 | 1.1
3 | Cc1cc(C)c(NC(=O)Nc2cc3ccccc3cc2C(=O)N[C@](C)(C(=O)O)C2CCCCC2)c(C)c1 |  |  | 1720 | 37 |  | 4.1 | 0.3 |  |  |  | 7.5
